The values that follow come from US9499495B2, “Quinazolines and azaquinazolines as dual inhibitors of RAS/RAF/MEK/ERK and PI3K/AKT/PTEN/mTOR pathways” (Asana Biosciences, LLC, priority 2013, dated 2016).

One assay concerns pS6RP in RKO cells. Kind of assay: In Cell Western (ICW) assay, pS6RP in RKO cells. The class given is cell-based. The note with it: Homo sapiens, 3 h treatment. The procedure: (§1) Cell lines A375, A2058 and RKO obtained from the ATCC as provided above, were grown, and after attaining ˜80% confluency were trypsinized, centrifuged and resuspended in fresh media. The cells were seeded at the specified density (20,000 to 50,000) in a 96-well format black-well clear bottom plate (Corning) and incubated overnight at 37° C. in a 5% CO2 incubator. The next day, compound dilutions of test compounds were prepared in 100% DMSO followed by dilutions in respective media. Treatment of test compounds was performed for 3 h at 37° C. in 5% CO2 incubator. Following 3 h drug treatment, the conditional media was discarded and the cells were washed once with cPBS (PBS containing 0.1% magnesium chloride hexahydrate and 0.1% anhydrous calcium chloride) and fixed with 4% paraformaldehyde in cPBS for 1 h at rt. After fixing, the cells were given three washes using cPBST (cPBS containing 0.1% Triton™ X-100 reagent) and then blocked using blocking solution (5% skimmed milk powder or 5% BSA prepared in cPBST) for 2 h at rt with shaking at 300 rpm. The cells were again washed thrice with cPBST and incubated with primary antibody phospho-p44/42 MAPK(Erk1/2)(Thr202/204) antibody (Cell Signaling, Catalog # 9101L), phospho S6 ribosomal protein (Cell Signaling, Catalog #4858L), phospho AKT (Thr 308) (Cell Signaling, Catalog #9275) or phospho AKT (Ser 473) (Cell Signaling, Catalog #4060L) in specified dilutions (1:500-1:2500), prepared in respective blocking solutions, in a racker overnight at 4° C. The next day, the cells were washed with 1× Delfia® wash buffer (4×1 wash) and incubated with secondary antibody (Delfia®-Eu-N1 labeled anti-rabbit antibody; PerkinElmer, Catalog #AD0105; dilutions: 1:2000 to 1:6000 in Delfia® assay buffer (PerkinElmer, Catalog #1244-111)) for 2 h at rt in the dark at 300 rpm. The cells were then given four washes with 1× Delfia® wash buffer and incubated with Wallac Delfia® Enhancement solution (100 μL; PerkinElmer, Catalog #1244-105) for 20 min at rt in the dark at 300 rpm. The fluorescence emission was then read at 615 nm with an excitation wavelength of 340 nm using a Victor V5 Fluorometer (Perkin Elmer, US). The cells were then washed once with 1×cPBS and incubated with 100 μL of 0.5 mg/mL of Hoechst 33258 dye prepared in cPBS and read at 460 nm with 355 nm excitation, thereby evaluating the correction factor.
(§2) The % inhibition for the test compounds of formula (I) (new chemical entities (NCEs)) was calculated keeping DMSO control as 0% and the IC50 values were determined using sigmoidal dose response curve fit in GraphPad Prism® v5 software.

The target in another assay is T1, mTOR kinase (Homo sapiens, UniProt P42345).
T1 construct: purchased Millipore, US
The experiment in a line: mTOR kinase TR-FRET assay. The class given is biochemical. Put shortly: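 TR-FRET with ULight-p70 S6K (Thr 389) peptide (50 nM) and 20 μM ATP in 50 mM HEPES pH 7.5, 1 mM EGTA, 3 mM MnCl2; compound pre-incubated with enzyme before substrate addition, reaction at rt, EDTA-stopped. Eu anti-phospho antibody read 665/615 nm; IC50 from sigmoidal dose-response fit.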

In another assay the test system is pERK in A375 cells. Kind of assay: In Cell Western (ICW) assay, pERK in A375 cells. The class given is cell-based. The settings on record: Homo sapiens, A-375, 3 h treatment. Put shortly:
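After a 3 h compound treatment at 37 °C, fixed RKO or A375 cells were probed for phospho-ERK1/2 (T202/Y204), phospho-S6RP or phospho-AKT T308 and detected with a Eu-tagged anti-rabbit antibody (ex 340/em 615 nm), with Hoechst signal as the cell-number correction. Inhibition was referenced to DMSO, and IC50 values came from sigmoidal dose-response curves.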

A further assay relates to RKO cells. The experiment in a line: XTT assay for cell viability, RKO cells. The note with it: Homo sapiens, 72 h. The class given is cell-based. The procedure:
Cell lines (A375 ATCC No. CRL-1619, A2058 ATCC No. CRL-11147 and RKO ATCC No. CRL-2577, American Type Culture Collection (ATCC), Manassas Va.) once attaining ˜80% confluency were trypsinized, centrifuged and resuspended in fresh media. Cells (1000-2000/per well) were seeded in 96-well plate and incubated over-night at 37° C. in a 5% CO2 incubator. Compound dilutions were prepared in 100% DMSO followed by dilutions in the respective media. The cells were treated with NCEs for 72 h at 37° C. in 5% CO2 incubator. After 72 h, freshly prepared XTT (1 mg/ml)/PMS (25 μM) solution was added, incubated for 2 to 3 h at 37° C. and the absorbance was measured at 450 nm using an ELISA plate reader. Keeping DMSO control as 100%, the effect of the compound to inhibit the cell proliferation was calculated and the GI50 values were determined using sigmoidal dose response curve fit in GraphPad Prism® v5 software.
Background: Tetrazolium dyes change colour on reduction, which living cells bring about.

The subject of the next assay is A375 cells. Kind of assay: XTT assay for cell viability, A375 cells. The class given is cell-based. The note with it: Homo sapiens, A-375, 72 h. Put shortly:
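GI50 derived by sigmoidal dose-response fitting of proliferation normalised to DMSO control (100%). Readout: A450 after 2-3 h with XTT (1 mg/ml)/PMS (25 μM), following 72 h compound treatment at 37° C., 5% CO2 of cells plated at 1000-2000 per well the previous day.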

The target of the next assay is T2, B-RAFV600E (Homo sapiens, UniProt P15056, V600E).
T2 construct: purchased Millipore, USA 14-557
Kind of assay: B-RAFV600E radiometric assay. The class given is biochemical. The note with it: read-out: Kinase assay B-Raf. The procedure, abridged:
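B-RAFV600E was preincubated 45 min at rt with compound in 1% DMSO. MEK-K97M (0.5 μg), 5 μM final cold ATP and [γ-32P]ATP were then added for 2 h at rt. Phosphorylated MEK was captured on P81 paper and scintillation-counted; IC50 came from a sigmoidal dose-response fit.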

The next assay deals with pERK in RKO cells. Kind of assay: In Cell Western (ICW) assay, pERK in RKO cells. The settings on record: Homo sapiens, 3 h treatment. The class given is cell-based. The protocol: as §1, §2

T1 sequence (P42345 1362-2549 limits assumed): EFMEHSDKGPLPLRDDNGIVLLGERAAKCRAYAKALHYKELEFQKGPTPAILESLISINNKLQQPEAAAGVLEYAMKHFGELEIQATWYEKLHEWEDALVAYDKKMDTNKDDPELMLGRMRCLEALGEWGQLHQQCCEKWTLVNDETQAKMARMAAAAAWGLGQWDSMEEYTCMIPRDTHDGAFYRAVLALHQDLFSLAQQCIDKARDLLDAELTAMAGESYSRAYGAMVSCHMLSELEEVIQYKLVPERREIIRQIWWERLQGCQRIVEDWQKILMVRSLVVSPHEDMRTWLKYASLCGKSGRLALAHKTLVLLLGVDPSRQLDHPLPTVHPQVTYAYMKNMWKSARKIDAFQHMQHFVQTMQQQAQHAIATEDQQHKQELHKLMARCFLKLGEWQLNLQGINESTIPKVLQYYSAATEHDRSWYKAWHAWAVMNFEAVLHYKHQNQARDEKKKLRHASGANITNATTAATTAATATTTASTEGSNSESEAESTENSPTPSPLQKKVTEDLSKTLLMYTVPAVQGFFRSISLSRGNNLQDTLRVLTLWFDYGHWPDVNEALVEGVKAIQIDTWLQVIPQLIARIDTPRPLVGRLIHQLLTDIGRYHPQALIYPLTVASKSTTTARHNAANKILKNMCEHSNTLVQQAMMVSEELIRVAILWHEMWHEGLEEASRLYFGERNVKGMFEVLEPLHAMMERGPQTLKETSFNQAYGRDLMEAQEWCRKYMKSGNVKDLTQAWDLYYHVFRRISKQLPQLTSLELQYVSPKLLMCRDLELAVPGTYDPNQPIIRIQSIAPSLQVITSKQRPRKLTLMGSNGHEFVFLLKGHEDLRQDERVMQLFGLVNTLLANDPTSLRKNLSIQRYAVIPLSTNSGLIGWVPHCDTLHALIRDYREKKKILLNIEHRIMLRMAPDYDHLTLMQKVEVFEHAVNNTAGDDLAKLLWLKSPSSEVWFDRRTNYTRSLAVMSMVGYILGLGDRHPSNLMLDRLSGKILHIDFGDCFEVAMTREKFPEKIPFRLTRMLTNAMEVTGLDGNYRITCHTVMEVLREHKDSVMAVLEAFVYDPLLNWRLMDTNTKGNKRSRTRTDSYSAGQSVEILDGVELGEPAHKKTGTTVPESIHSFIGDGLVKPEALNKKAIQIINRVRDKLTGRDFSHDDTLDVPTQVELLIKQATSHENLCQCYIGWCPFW
T2 sequence (P15056 416-766 V600E limits assumed): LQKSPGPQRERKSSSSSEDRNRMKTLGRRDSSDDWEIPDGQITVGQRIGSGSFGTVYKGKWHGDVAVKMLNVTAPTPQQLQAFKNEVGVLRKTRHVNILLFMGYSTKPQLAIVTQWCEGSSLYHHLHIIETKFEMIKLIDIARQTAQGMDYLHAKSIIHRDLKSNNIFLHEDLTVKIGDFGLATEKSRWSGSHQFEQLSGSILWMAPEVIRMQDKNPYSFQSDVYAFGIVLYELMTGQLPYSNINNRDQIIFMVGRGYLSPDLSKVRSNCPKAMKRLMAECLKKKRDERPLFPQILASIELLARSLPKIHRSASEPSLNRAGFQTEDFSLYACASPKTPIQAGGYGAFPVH

On to `COc1cc(-c2cccc(NS(=O)(=O)CCCF)c2F)cc2c(N3CCOCC3)nc(-c3ccc(N)nc3)nc12` [Example 30, N-(3-(2-(6-aminopyridin-3-yl)-8-methoxy-4-morpholinoquinazolin-6-yl)-2-fluorophenyl)-3-fluoropropane-1-sulfonamide], for which the IC50 lay within 100 to 1000 nM with pS6RP in RKO cells; 100 to 1000 nM against mTOR kinase; 1 to 100 nM with pERK in A375 cells; 100 to 1000 nM with RKO cells; 100 to 1000 nM with A375 cells; 1 to 100 nM at B-RAFV600E. Further, the IC50 in the assay with pERK in RKO cells is 1 to 100 nM.

Turning to `CCOc1cc(-c2cccc(NS(=O)(=O)CCCF)c2F)cc2c(N3CCOCC3)nc(-c3ccc(N)nc3)nc12` [Example 52, N-(3-(2-(6-aminopyridin-3-yl)-8-ethoxy-4-morpholinoquinazolin-6-yl)-2-fluorophenyl)-3-fluoropropane-1-sulfonamide], the IC50 fell in the range of 100 to 1000 nM in the assay on pS6RP in RKO cells; 100 to 1000 nM against mTOR kinase; 1 to 100 nM in the assay on pERK in A375 cells; 100 to 1000 nM in the assay with RKO cells; 1 to 100 nM with A375 cells; 1 to 100 nM on B-RAFV600E. In the assay on pERK in RKO cells, this compound yielded an IC50 of 1 to 100 nM.

Regarding `COCCOc1cc(-c2cccc(NS(=O)(=O)CCCF)c2F)cc2c(N3CCOCC3)nc(-c3cnc(N)nc3)nc12` [Example 68, N-(3-(2-(2-aminopyrimidin-5-yl)-8-(2-methoxyethoxy)-4-morpholinoquinazolin-6-yl)-2-fluorophenyl)-3-fluoropropane-1-sulfonamide], the IC50 was in the range of 100 to 1000 nM with pS6RP in RKO cells; 1 to 100 nM on mTOR kinase; 1 to 100 nM in the assay with pERK in A375 cells; 100 to 1000 nM in the assay with RKO cells; 1 to 100 nM on B-RAFV600E.

As to `CC(C)Oc1cc(-c2cccc(NS(=O)(=O)CCCF)c2F)cc2c(N3CCOC[C@H]3C)nc(-c3cnc(N)nc3)nc12` [Example 64, (R)-N-(3-(2-(2-aminopyrimidin-5-yl)-8-isopropoxy-4-(3-methylmorpholino)quinazolin-6-yl)-2-fluorophenyl)-3-fluoropropane-1-sulfonamide], the IC50 lay in the range of 100 to 1000 nM in the assay on pS6RP in RKO cells; 100 to 1000 nM at mTOR kinase; 1 to 100 nM in the assay with pERK in A375 cells; 1 to 100 nM with A375 cells; 1 to 100 nM at B-RAFV600E.

As for `CC(C)Oc1cc(-c2cccc(NS(=O)(=O)CCCF)c2F)cc2c(N3CCOCC3)nc(-c3ccc(N)nc3)nc12` [Example 55, N-(3-(2-(6-aminopyridin-3-yl)-8-isopropoxy-4-morpholinoquinazolin-6-yl)-2-fluorophenyl)-3-fluoropropane-1-sulfonamide], the IC50 in the assay on pS6RP in RKO cells was in the range of 100 to 1000 nM; against mTOR kinase, 100 to 1000 nM; in the assay with pERK in A375 cells, 1 to 100 nM; in the assay with RKO cells it was 100 to 1000 nM; with A375 cells, 1 to 100 nM; on B-RAFV600E it was 1 to 100 nM. The compound further registered an IC50 in the assay with pERK in RKO cells of 1 to 100 nM.

For `CC(C)Oc1cc(-c2cccc(NS(=O)(=O)CCCF)c2F)cc2c(N3CCOC[C@H]3C)nc(-c3ccc(N)nc3)nc12` [Example 63, (R)-N-(3-(2-(6-aminopyridin-3-yl)-8-isopropoxy-4-(3-methylmorpholino)quinazolin-6-yl)-2-fluorophenyl)-3-fluoropropane-1-sulfonamide], the IC50 with pS6RP in RKO cells was in the range of 100 to 1000 nM; on mTOR kinase, 1 to 100 nM; with pERK in A375 cells, 1 to 100 nM; in the assay on RKO cells, 100 to 1000 nM; in the assay on A375 cells it was 1 to 100 nM; on B-RAFV600E it was 1 to 100 nM. The same compound showed an IC50 in the assay with pERK in RKO cells of 1 to 100 nM.

For `COc1cc(-c2cccc(NS(=O)(=O)CCCF)c2F)cc2c(N3CCOC[C@H]3C)nc(-c3ccc(N)nc3)nc12` [Example 42, (R)-N-(3-(2-(6-aminopyridin-3-yl)-8-methoxy-4-(3-methylmorpholino)quinazolin-6-yl)-2-fluorophenyl)-3-fluoropropane-1-sulfonamide], the IC50 was in the range of 100 to 1000 nM in the assay with pS6RP in RKO cells; 1 to 100 nM on mTOR kinase; 1 to 100 nM in the assay with pERK in A375 cells; 100 to 1000 nM in the assay with RKO cells; 1 to 100 nM with A375 cells; 1 to 100 nM on B-RAFV600E. The compound also displayed an IC50 in the assay with pERK in RKO cells of 1 to 100 nM.

In the case of `COCCOc1cc(-c2cccc(NS(=O)(=O)CCCF)c2F)cc2c(N3CCOCC3)nc(-c3ccc(N)nc3)nc12` [Example 67, N-(3-(2-(6-aminopyridin-3-yl)-8-(2-methoxyethoxy)-4-morpholinoquinazolin-6-yl)-2-fluorophenyl)-3-fluoropropane-1-sulfonamide], the IC50 lay within 100 to 1000 nM in the assay with pS6RP in RKO cells; 1 to 100 nM on mTOR kinase; 100 to 1000 nM with pERK in A375 cells; 1 to 100 nM with RKO cells; 1 to 100 nM on B-RAFV600E.

In the case of `COc1cc(-c2cccc(NS(=O)(=O)CCCF)c2F)cc2c(N3CCOCC3)nc(-c3cnc4[nH]ccc4c3)nc12` [Example 40, 3-fluoro-N-(2-fluoro-3-(8-methoxy-4-morpholino-2-(1H-pyrrolo[2,3-b]pyridin-5-yl)quinazolin-6-yl)phenyl)propane-1-sulfonamide], the IC50 lay in the range of 100 to 1000 nM in the assay with pS6RP in RKO cells; 1 to 100 nM against mTOR kinase; 1 to 100 nM in the assay on pERK in A375 cells; 100 to 1000 nM in the assay on A375 cells; 1 to 100 nM on B-RAFV600E.

As for `CCOc1cc(-c2cccc(NS(=O)(=O)CCCF)c2F)cc2c(N3CCOC[C@@H]3C)nc(-c3ccc(N)nc3)nc12` [Example 65, (S)-N-(3-(2-(6-aminopyridin-3-yl)-8-ethoxy-4-(3-methylmorpholino)quinazolin-6-yl)-2-fluorophenyl)-3-fluoropropane-1-sulfonamide], the IC50 was 100 to 1000 nM in the assay on pS6RP in RKO cells; 1 to 100 nM against mTOR kinase; 1 to 100 nM in the assay on pERK in A375 cells; 100 to 1000 nM with RKO cells; 100 to 1000 nM with A375 cells; 1 to 100 nM on B-RAFV600E.

For the compound `CCOc1cc(-c2cccc(NS(=O)(=O)CCCF)c2F)cc2c(N3CCOC[C@H]3C)nc(-c3cnc(N)nc3)nc12` [Example 137, (R)-N-(3-(2-(2-aminopyrimidin-5-yl)-8-ethoxy-4-(3-methylmorpholino)quinazolin-6-yl)-2-fluorophenyl)-3-fluoropropane-1-sulfonamide], the IC50 on mTOR kinase was 100 to 1000 nM; with pERK in A375 cells, 1 to 100 nM; with RKO cells, 1 to 100 nM; in the assay with A375 cells, 100 to 1000 nM; on B-RAFV600E, 1 to 100 nM; in the assay on pERK in RKO cells, 1 to 100 nM.
